Test results: US20040019026A1, “Compounds useful for treating hypertriglyceridemia” (priority 2000, published 2004)
Where “and” joins values, the source holds several entries; their conditions need not be identical. Identical values can stand only once.

How the values were obtained:
Female CD-1 mice = experiment: Dexamethasone-induced thymic and splenic atrophy, anti-glucocorticoid effect (Example 4); format: in vivo; details: for Spleen Wt. / Thymus Wt.: no DEX
Protocol: Female CD-1 mice were obtained from Charles River Laboratories, Kingston, N.Y. at 43-45 days of age. The mice were housed five per cage in plastic shoebox cages on corn cob bedding in the Fels Animal Facility at 72°±2° F. with 50%±5% humidity and twelve hours of alternate light and darkness. The mice had ad libitum access to Purina chain 5015 and acidified water for pretreatment.
Six days later, the mice were weighed, earmarked and redistributed into six groups for treatment: 1) a control group, 2) a group treated with dexamethasone (“DEX”), a glucocorticoid which induces thymic and splenic atrophy, 3) a group treated with 200 mg/kg 16α-fluoro-5-androsten-17-one (hereinafter “drug”), 4) a group treated with 400 mg/kg of, 5) a group treated with dexamethasone and 200 mg/kg drug and 6) a group treated with dexamethasone and 400 mg/kg drug. The treatment in the groups were as follows and were conducted simuitaneously.
The control group was intubated with 0.2 mL of sesame oil for three days. On the third day after commencement of the intubation, the mice were injected subcutaneously with 0.05 mL of absolute ethanol one hour after the last treatment with sesame oil.
The second group was intubated with 0.2 mL of sesame oil for three days. On the third day after the commencement of the intubation, the mice were injected subcutaneously with 1.6 mg of dexamethasone dissolved in 0.05 mL of absolute ethanol approximately one hour after the last treatment with sesame oil.
The third and fourth groups were intubated with 200 mg/Kg and 400 mg/Kg drug, respectively, suspended in 0.2 mL of sesame oil for three days. After commencement of the intubation, the mice were injected subcutaneously with 0.05 mL of absolute ethanol approximately one hour after the last treatment with sesame oil.
The fifth and sixth groups were intubated with 200 mg/kg and 400 mg/kg, respectively, of drug, suspended in 0.2 mL of sesame oil for three days. On the third day after commencement of the intubation, the mice were injected subcutaneously with 1.6 mg of dexamethasome dissolved in 0.05 mL of absolute ethanol approximately one hour after the last treatment with sesame oil.
All of the mice were sacrificed by an overdose of CO2 approximately 24 hours after the injection of ethanol (first, third and fourth groups) or approximately 24 hours after injection with dexamethasone (second, fifth and sixth groups). The mice were weighed and the thymus was excised, cleaned of adventia, rinsed in phosphate-buffered saline (P.B.S.), blotted and weighed. The spleen was also excised, cleaned, rinsed, blotted and weighed.

[1] = test system: patients with rheumatoid arthritis; experiment: Oral fluasterone in rheumatoid arthritis patients, obese vs non-obese: triglycerides (Example 6); format: in vivo, human
Protocol: In this clinical trial oral fluasterone (1200 mg) was administered daily to patients with rheumatoid arthritis for 3 to 12 weeks. Nine patients had baseline triglyceride levels 200 mg/dL. These patients were divided into obese (BMI>30) and non-obese (BMI<30) groups. […] However, the conclusion would be the same without the addition of this patient.
The baseline levels was the mean value of week −2, 0 and the treatment levels were the last values obtained (week 3 to 12) for each patient. The obese patients has a BMI of 36.6±4.0 and the non-obese a BMI of 27.1±1.5.

[2] = test system: male BKS.Cg-m+/+Leprdb mice; experiment: Fasting plasma glucose levels in diabetic mice (Example 9); format: in vivo
[3] = test system: male BKS.Cg-m+/+Leprdb mice; experiment: Fasting plasma triglyceride levels in diabetic mice (Example 9); format: in vivo
From the text: Eight week old male BKS.Cg-m^+/+Lepr^db mice were obtained from Jackson Laboratories. These mice have a point mutation in the leptin receptor gene and produce a truncated receptor with impaired signaling capacity. These animals are severely insulin resistant and manifest an uncontrolled rise in blood sugar, severe depletion of the insulin-producing beta-cells of the pancreatic islets, and death by 10 months of age. The male animals also have very low plasma testosterone levels and as a consequence undeveloped seminal vesicle glands. Administration of androgens to these mice produces an increase in seminal vesicle weights similar to that seen in castrated males. Thus these animals can be used to assess androgenic potency of various compounds.
A week later, the mice were treated subcutaneously (s.c.) with 0.05 mL fluasterone (16α-fluoro-5-androsten-17-one) suspended in an Emulphor-saline vehicle to give either a dose of 5 mg/kg s.c. or 20 mg/kg s.c. or intraperitoneally (i.p.) with 0.05 mL of fluasterone suspended in an Emulphor-saline vehicle to give a dose of 5 mg/kg. The Control mice received the Emulphor-saline vehicle s.c.
All the mice were anesthetized lightly with isoflurane before treatment with fluasterone to minimize the risk of stressing the mice while giving the s.c. dose. Their food was removed the afternoon before administration with drug and the chow was to the mice the next morning immediately after treatment. All the mice had their chow removed daily and restored just after fluasterone administration. During the week, the mice had access to chow for approximately 6½ hours, while on the weekends, the mice had approximately 4½ hours of access to chow. Mice were treated daily (weekdays and weekends).
Plasma triglyceride levels were determined with a Sigma kit (334-UV ). The determination is based on the enzymatic hydrolysis of triglycerides to glycerol and free fatty acids by lipase. Glycerol is subsequently phosphorylated by ATP to produce glycerol-1-phosphate and ADP. ATP is regenerated by a pyruvate kinase-catalyzed reaction between ADP and phosphoenol pyruvate. […] NADH absorbs at 340 nm, thus the decrease in absorbance, measured at this wavelength, is directly proportional to the triglyceride concentration in the sample.
Triglyceride Reagent A (containing ATP, lactate dehydrogenase, lipase, NADH, phosphoenol pyruvate, pyruvate kinase) and Triglyceride Reagent B were reconstituted with 10 mL and 2 mL of distilled water respectively. The Sample Regent is prepared by adding 0.25 mL of Triglyceride Reagent B to 10 mL of Triglyceride Reagent A. Blank, standards (50, 100 and 200 mg/dL) and sample tubes were prepared. One mL of Sample Reagent is added to all tubes. To the Blank tube, 20 μL of distilled water is added. For each Sample tube, 20 μL of plasma is added to the tube. All tubes were incubated at room temperature for 10 minutes. The tubes were read against a Reference containing distilled water. Triglyceride concentration in the samples were calculated by subtracting the absorbance of the Sample from the absorbance of the Blank and using the following formula: […]

[4] = 200 mg/kg drug intubated for three days
[5] = 400 mg/kg drug intubated for three days
[6] = 200 mg/kg oral, treatment day 0
[7] = 200 mg/kg oral, treatment day 14, less than oral Control, p < 0.001
[8] = 200 mg/kg oral, treatment day 17, less than oral Control, p < 0.001

C[C@]12CCCCC1=CC[C@@H]1[C@@H]2CC[C@]2(C)C(=O)[C@H](F)C[C@@H]12 [fluasterone, 16α-fluoro-5-androsten-17-one]
Spleen Wt. (Female CD-1 mice; [4]): 103.5 ± 9.2 mg
Thymus Wt. (Female CD-1 mice; [4]): 65.0 ± 5.8 mg
Effect on dexamethasone-induced thymic and splenic atrophy (Female CD-1 mice; 400 mg/kg): significantly reduced dexamethasone-induced thymic and splenic atrophy
Spleen Wt. (Female CD-1 mice; [5]): 129.4 ± 17.9 mg
Thymus Wt. (Female CD-1 mice; [5]): 74.3 ± 7.1 mg
Decline in triglyceride level, obese vs non-obese ([1]; 1200 mg oral daily, p=0.0113, group effect): significantly greater decline in triglyceride level than the non-obese
Triglycerides (mean ± S.D.) ([1]; Non-obese (BMI<30), baseline (mean of week −2, 0)): 310 mg/dL and 330 ± 163 (10) mg/dL
Triglycerides (mean ± S.D.) ([1]; Non-obese (BMI<30), treatment 1200 mg oral daily, last value (week 3 to 12)): 248 ± 89.8 (5) mg/dL
Triglycerides (mean ± S.D.) ([1]; Obese (BMI>30), baseline (mean of week −2, 0)): 232 mg/dL and 231 ± 57.1 (10) mg/dL
Triglycerides (mean ± S.D.) ([1]; Obese (BMI>30), treatment 1200 mg oral daily, last value (week 3 to 12)): 135 ± 12.1 (5) mg/dL
Fasting Plasma Glucose Levels ([2]; 5 mg/kg i.p., treatment day 0): 270 ± 81.9 mg/dL
Fasting Plasma Glucose Levels ([2]; 5 mg/kg i.p., treatment day 7): 434 ± 264 mg/dL
Fasting Plasma Glucose Levels ([2]; 5 mg/kg i.p., treatment day 14): 410 ± 32.1 mg/dL
Fasting Plasma Glucose Levels ([2]; 5 mg/kg i.p., treatment day 17, greater than s.c. Control, p < 0.01): 635 ± 77.3^3 mg/dL
Fasting Plasma Glucose Levels ([2]; 5 mg/kg s.c., treatment day 0): 245 ± 102 mg/dL
Fasting Plasma Glucose Levels ([2]; 5 mg/kg s.c., treatment day 7): 173 ± 58.3 mg/dL
Fasting Plasma Glucose Levels ([2]; 5 mg/kg s.c., treatment day 14, less than s.c. Control, p < 0.001): 134 ± 29.8^1 mg/dL
Fasting Plasma Glucose Levels ([2]; 5 mg/kg s.c., treatment day 17, less than s.c. Control, p < 0.001): 96.0 ± 18.5^1 mg/dL
Fasting Plasma Glucose Levels [2, 6]: 245 ± 72.1 mg/dL
Fasting Plasma Glucose Levels ([2]; 200 mg/kg oral, treatment day 7): 181 ± 69.3 mg/dL
Fasting Plasma Glucose Levels [2, 7]: 107 ± 12.2^2 mg/dL
Fasting Plasma Glucose Levels [2, 8]: 104 ± 24.8^2 mg/dL
Fasting Plasma Triglyceride Levels ([3]; 5 mg/kg i.p., treatment day 0): 136 ± 38.4 mg/dL
Fasting Plasma Triglyceride Levels ([3]; 5 mg/kg i.p., treatment day 7, less than s.c. Control, p < 0.02): 91.1 ± 14.5^2 mg/dL
Fasting Plasma Triglyceride Levels ([3]; 5 mg/kg i.p., treatment day 14, less than s.c. Control, p < 0.01): 115 ± 14.2^4 mg/dL
Fasting Plasma Triglyceride Levels ([3]; 5 mg/kg i.p., treatment day 17): 116 ± 17.0 mg/dL
Fasting Plasma Triglyceride Levels ([3]; 5 mg/kg s.c., treatment day 0): 126 ± 20.9 mg/dL
Fasting Plasma Triglyceride Levels ([3]; 5 mg/kg s.c., treatment day 7, less than s.c. Control, p < 0.02): 115 ± 33.3^2 mg/dL
Fasting Plasma Triglyceride Levels ([3]; 5 mg/kg s.c., treatment day 14, less than s.c. Control, p < 0.01): 115 ± 15.7^4 mg/dL
Fasting Plasma Triglyceride Levels ([3]; 5 mg/kg s.c., treatment day 17): 115 ± 13.7 mg/dL
Fasting Plasma Triglyceride Levels [3, 6]: 126 ± 18.6 mg/dL
Fasting Plasma Triglyceride Levels ([3]; 200 mg/kg oral, treatment day 7, less than oral Control, p < 0.01): 107 ± 38.9^1 mg/dL
Fasting Plasma Triglyceride Levels [3, 7]: 95.7 ± 15.6^3 mg/dL
Fasting Plasma Triglyceride Levels [3, 8]: 100 ± 13.1^3 mg/dL
